Measured values: PubChem BioAssay (NCI)
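Values below derive from 48-hour exposures of cells grown in 96-well plates, with endpoints linearly interpolated between the two concentrations bracketing the appropriate inhibition level. At the GI50, growth is halved. TGI is the concentration that stops growth completely.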

Experiments:
Experiment in all cases: NCI anticancer screen, dose series, 48 h
SK-MEL-2 melanoma = test system: SK-MEL-2 melanoma
HL-60(TB) leukemia = test system: HL-60(TB) leukemia
SNB-75 CNS = test system: SNB-75 CNS
SNB-19 CNS = test system: SNB-19 CNS
HS 578T breast = test system: HS 578T breast
SR leukemia = test system: SR leukemia
HOP-62 NSCLC = test system: HOP-62 NSCLC
SW-620 colon = test system: SW-620 colon
NCI-H460 lung = test system: NCI-H460 lung
NCI-H226 lung = test system: NCI-H226 lung
ACHN renal = test system: ACHN renal
MDA-MB-231 breast = test system: MDA-MB-231 breast
PC-3 prostate = test system: PC-3 prostate
MDA-MB-435 = test system: MDA-MB-435
NCI-H23 lung = test system: NCI-H23 lung
A498 renal = test system: A498 renal
A549 NSCLC = test system: A549 NSCLC
UACC-257 melanoma = test system: UACC-257 melanoma
NCI/ADR-RES ovarian = test system: NCI/ADR-RES ovarian
SF-539 CNS = test system: SF-539 CNS
OVCAR-8 ovarian = test system: OVCAR-8 ovarian
UACC-62 melanoma = test system: UACC-62 melanoma
MOLT-4 leukemia = test system: MOLT-4 leukemia
T-47D breast = test system: T-47D breast
MALME-3M melanoma = test system: MALME-3M melanoma
HCT-15 colon = test system: HCT-15 colon
KM12 colon = test system: KM12 colon
OVCAR-3 ovarian = test system: OVCAR-3 ovarian
RXF 393 renal = test system: RXF 393 renal
M14 melanoma = test system: M14 melanoma
HCT-116 colon = test system: HCT-116 colon
MCF7 breast = test system: MCF7 breast
CAKI-1 renal = test system: CAKI-1 renal
NCI-H522 lung = test system: NCI-H522 lung
HT29 colon = test system: HT29 colon
SK-OV-3 ovarian = test system: SK-OV-3 ovarian
SK-MEL-28 melanoma = test system: SK-MEL-28 melanoma
COLO 205 colon = test system: COLO 205 colon
SF-268 CNS = test system: SF-268 CNS
TK-10 renal = test system: TK-10 renal
IGROV1 ovarian = test system: IGROV1 ovarian
HOP-92 NSCLC = test system: HOP-92 NSCLC
U251 CNS = test system: U251 CNS
OVCAR-5 ovarian = test system: OVCAR-5 ovarian
CCRF-CEM leukemia = test system: CCRF-CEM leukemia
HCC-2998 colon = test system: HCC-2998 colon
K-562 leukemia = test system: K-562 leukemia
SN12C renal = test system: SN12C renal
UO-31 renal = test system: UO-31 renal
DU-145 prostate = test system: DU-145 prostate
OVCAR-4 ovarian = test system: OVCAR-4 ovarian
786-0 renal = test system: 786-0 renal
SK-MEL-5 melanoma = test system: SK-MEL-5 melanoma
SF-295 CNS = test system: SF-295 CNS
LOX IMVI melanoma = test system: LOX IMVI melanoma
EKVX NSCLC = test system: EKVX NSCLC
RPMI-8226 leukemia = test system: RPMI-8226 leukemia

[2H]C([2H])([2H])Oc1cc(F)ccc1/C=C/C(=O)/C=C(/C=C/c1ccc(F)cc1OC([2H])([2H])[2H])OB(F)F
GI50 (SK-MEL-2 melanoma): 2.99 µM | TGI (SK-MEL-2 melanoma): > 100 µM | GI50 (HL-60(TB) leukemia): 1.68 µM | TGI (HL-60(TB) leukemia): 6.67 µM | GI50 (SNB-75 CNS): 2.39 µM | TGI (SNB-75 CNS): > 100 µM | GI50 (SNB-19 CNS): 3.47 µM | TGI (SNB-19 CNS): > 100 µM | GI50 (HS 578T breast): 5.67 µM | TGI (HS 578T breast): > 100 µM | GI50 (SR leukemia): 2.67 µM | TGI (SR leukemia): > 100 µM | GI50 (HOP-62 NSCLC): 3.11 µM | TGI (HOP-62 NSCLC): > 100 µM

C[C@H]1[C@H](C)CC[C@]2(C(=O)OCCCC[P+](c3ccccc3)(c3ccccc3)c3ccccc3)CC[C@]3(C)C(=CC[C@@H]4[C@@]5(C)CC[C@H](OC(=O)C(Cl)Cl)C(C)(C)[C@@H]5CC[C@]43C)[C@H]12
GI50 (SW-620 colon): 0.349 µM | TGI (SW-620 colon): 1.29 µM | GI50 (NCI-H460 lung): 0.283 µM | TGI (NCI-H460 lung): 0.975 µM | GI50 (NCI-H226 lung): 0.354 µM | TGI (NCI-H226 lung): 1.82 µM

C=C1c2c(C)nn(-c3ccc(OC)cc3)c2N(C)C23C[C@@H]1C1(C)c4c(C)nn(-c5ccc(OC)cc5)c4N(C)C(C)(C[C@H]12)C3 (some centres not stated)
GI50 (ACHN renal): 3.3 µM | TGI (ACHN renal): 19 µM | GI50 (SK-MEL-2 melanoma): 3.23 µM | TGI (SK-MEL-2 melanoma): 9.94 µM | GI50 (HL-60(TB) leukemia): 2.54 µM | TGI (HL-60(TB) leukemia): > 100 µM | GI50 (MDA-MB-231 breast): 3.11 µM | TGI (MDA-MB-231 breast): 15.7 µM | GI50 (PC-3 prostate): 1.75 µM | TGI (PC-3 prostate): 7.77 µM | GI50 (MDA-MB-435): 3.4 µM | TGI (MDA-MB-435): > 100 µM | GI50 (NCI-H23 lung): 3.86 µM | TGI (NCI-H23 lung): 53.6 µM | GI50 (A498 renal): 2.47 µM | TGI (A498 renal): 16.4 µM | GI50 (A549 NSCLC): 2.69 µM | TGI (A549 NSCLC): 55.7 µM | GI50 (UACC-257 melanoma): 2.68 µM | TGI (UACC-257 melanoma): > 100 µM | GI50 (NCI/ADR-RES ovarian): 4.04 µM | TGI (NCI/ADR-RES ovarian): > 100 µM | GI50 (SF-539 CNS): 3.16 µM | TGI (SF-539 CNS): 16.8 µM | GI50 (OVCAR-8 ovarian): 3.4 µM | TGI (OVCAR-8 ovarian): 39.3 µM | GI50 (UACC-62 melanoma): 2.86 µM | TGI (UACC-62 melanoma): > 100 µM | GI50 (MOLT-4 leukemia): 2.6 µM | TGI (MOLT-4 leukemia): > 100 µM | GI50 (T-47D breast): 1.81 µM | TGI (T-47D breast): > 100 µM | GI50 (MALME-3M melanoma): 3.24 µM | TGI (MALME-3M melanoma): > 100 µM | GI50 (HCT-15 colon): 3.11 µM | TGI (HCT-15 colon): > 100 µM | GI50 (KM12 colon): 3.75 µM | TGI (KM12 colon): > 100 µM | GI50 (OVCAR-3 ovarian): 3.27 µM | TGI (OVCAR-3 ovarian): > 100 µM | GI50 (RXF 393 renal): 1.9 µM | TGI (RXF 393 renal): 6.08 µM | GI50 (M14 melanoma): 3.88 µM | TGI (M14 melanoma): > 100 µM | GI50 (SW-620 colon): 3.63 µM | TGI (SW-620 colon): > 100 µM | GI50 (HCT-116 colon): 2.82 µM | TGI (HCT-116 colon): 12.8 µM | GI50 (MCF7 breast): 2.69 µM | TGI (MCF7 breast): > 100 µM | GI50 (CAKI-1 renal): 2.67 µM | TGI (CAKI-1 renal): > 100 µM | GI50 (NCI-H522 lung): 2.77 µM | TGI (NCI-H522 lung): 11 µM | GI50 (HT29 colon): 3.24 µM | TGI (HT29 colon): > 100 µM | GI50 (NCI-H226 lung): 4.44 µM | TGI (NCI-H226 lung): 63 µM | GI50 (SNB-19 CNS): 4.34 µM | TGI (SNB-19 CNS): 55.8 µM | GI50 (SK-OV-3 ovarian): 3.39 µM | TGI (SK-OV-3 ovarian): 16.2 µM | GI50 (SK-MEL-28 melanoma): 5.86 µM | TGI (SK-MEL-28 melanoma): > 100 µM | GI50 (COLO 205 colon): 2.2 µM | TGI (COLO 205 colon): 5.11 µM | GI50 (HS 578T breast): 6.23 µM | TGI (HS 578T breast): 77.4 µM | GI50 (SF-268 CNS): 3.63 µM | TGI (SF-268 CNS): 70.5 µM | GI50 (TK-10 renal): 3.63 µM | TGI (TK-10 renal): 11.8 µM | GI50 (IGROV1 ovarian): 7.54 µM | TGI (IGROV1 ovarian): > 100 µM | GI50 (HOP-92 NSCLC): 1.18 µM | TGI (HOP-92 NSCLC): 5.4 µM | GI50 (U251 CNS): 2.67 µM | GI50 (OVCAR-5 ovarian): 11.3 µM | TGI (OVCAR-5 ovarian): > 100 µM | GI50 (CCRF-CEM leukemia): 3.41 µM | TGI (CCRF-CEM leukemia): > 100 µM | GI50 (HCC-2998 colon): 4.07 µM | TGI (HCC-2998 colon): > 100 µM | GI50 (K-562 leukemia): 3.6 µM | TGI (K-562 leukemia): > 100 µM | GI50 (SN12C renal): 3.65 µM | TGI (SN12C renal): > 100 µM | GI50 (SR leukemia): 3.16 µM | TGI (SR leukemia): > 100 µM | GI50 (HOP-62 NSCLC): 4.28 µM | TGI (HOP-62 NSCLC): 18.9 µM | GI50 (UO-31 renal): 2.61 µM | TGI (UO-31 renal): > 100 µM | GI50 (DU-145 prostate): 4.38 µM | TGI (DU-145 prostate): > 100 µM | GI50 (OVCAR-4 ovarian): 3.56 µM | TGI (OVCAR-4 ovarian): 54.6 µM | GI50 (786-0 renal): 4.23 µM | TGI (786-0 renal): 19.7 µM

COc1cc(C2NCCC(c3ccccc3)(c3ccccc3)N2)cc(OC)c1OC (configuration not stated)
TGI (ACHN renal): > 100 µM | TGI (HL-60(TB) leukemia): 90.2 µM | TGI (MDA-MB-231 breast): > 100 µM | TGI (MDA-MB-435): > 100 µM | TGI (NCI-H23 lung): > 100 µM | TGI (A498 renal): 88.6 µM | TGI (A549 NSCLC): > 100 µM | TGI (UACC-257 melanoma): 33.9 µM | TGI (SK-MEL-5 melanoma): 32.1 µM | TGI (NCI/ADR-RES ovarian): > 100 µM | TGI (SF-539 CNS): 29.7 µM | TGI (OVCAR-8 ovarian): > 100 µM | TGI (UACC-62 melanoma): > 100 µM | TGI (T-47D breast): > 100 µM | TGI (MALME-3M melanoma): 34 µM | TGI (HCT-15 colon): > 100 µM | TGI (KM12 colon): > 100 µM | TGI (RXF 393 renal): > 100 µM | TGI (M14 melanoma): 27.2 µM | TGI (SW-620 colon): > 100 µM | TGI (HCT-116 colon): > 100 µM | TGI (MCF7 breast): 85.8 µM | TGI (NCI-H460 lung): > 100 µM | TGI (SF-295 CNS): 35.8 µM | TGI (SNB-75 CNS): > 100 µM | TGI (HT29 colon): 79.4 µM | TGI (NCI-H226 lung): 43.8 µM | TGI (SNB-19 CNS): > 100 µM | TGI (SK-OV-3 ovarian): > 100 µM | TGI (SK-MEL-28 melanoma): 35.6 µM | TGI (COLO 205 colon): 42.4 µM | TGI (HS 578T breast): 79.5 µM | TGI (LOX IMVI melanoma): 47.7 µM | TGI (SF-268 CNS): > 100 µM | TGI (EKVX NSCLC): > 100 µM | TGI (TK-10 renal): > 100 µM | TGI (IGROV1 ovarian): > 100 µM | TGI (HOP-92 NSCLC): 27.9 µM | TGI (U251 CNS): > 100 µM | TGI (CCRF-CEM leukemia): > 100 µM | TGI (HCC-2998 colon): 42.7 µM | TGI (SN12C renal): > 100 µM | TGI (SR leukemia): > 100 µM | TGI (HOP-62 NSCLC): > 100 µM | TGI (UO-31 renal): 66.2 µM | TGI (DU-145 prostate): > 100 µM | TGI (OVCAR-4 ovarian): > 100 µM | TGI (786-0 renal): > 100 µM

C#C[C@]1(O)CC[C@H]2[C@@H]3CC=C4c5nc(Nc6ncccn6)sc5CC[C@]4(C)[C@H]3CC[C@@]21C
GI50 (RPMI-8226 leukemia): 0.421 µM | TGI (RPMI-8226 leukemia): 2.11 µM | GI50 (RXF 393 renal): 0.451 µM | TGI (RXF 393 renal): 1.69 µM | GI50 (SNB-19 CNS): 2.77 µM | TGI (SNB-19 CNS): > 100 µM | GI50 (HS 578T breast): 1.25 µM | TGI (HS 578T breast): 4.14 µM | GI50 (EKVX NSCLC): 2.99 µM | TGI (EKVX NSCLC): > 100 µM
